# Measured values taken from US20260053932A1, “COMPOUNDS AND METHODS FOR THE TARGETED DEGRADATION OF ANDROGEN RECEPTOR AND ASSOCIATED METHODS OF USE” (Arvinas Operations, Inc., priority 2020, published 2026).
# System: androgen receptor (AR) in LNCaP and/or VCaP cells
# Experiment: Androgen Receptor ELISA assay (AR degradation)
# Type: cell-based
# Conditions: LNCaP and/or VCaP cells; 5 hours incubation; media with R1881; read-out: DC50 Code* (degradation of AR ELISA)
# In short: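 VCaP cells grown ≥3 days, then treated 5 h with compound in media containing 1 nM R1881 (10× stock). Cells lysed and AR quantified by sandwich ELISA (mouse AR detection Ab, HRP anti-mouse, TMB). DC50 and Dmax derived from AR degradation.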
row,Compound,DC50
1,"CC(C)N(CC1CCN(c2cnc(C(=O)N[C@H]3CC[C@H](Oc4ccc(C#N)c(Cl)c4)CC3)cn2)CC1)[C@H]1C[C@H](Oc2ccc3c(c2)C(=O)N([C@@H]2C(=O)NC(=O)C[C@@H]2C)C3=O)C1 [Compound 76, N-((1r,4r)-4-(3-chloro-4-cyanophenoxy)cyclohexyl)-5-(4-((isopropyl((1S,3r)-3-((2-((3S,4S)-4-methyl-2,6-dioxopiperidin-3-yl)-1,3-dioxoisoindolin-5-yl)oxy)cyclobutyl)amino)methyl)piperidin-1-yl)pyrazine-2-carboxamide]",> 100 nM
2,"CCOc1cc(O[C@H]2CC[C@H](NC(=O)c3cnc(N4CC(CN(C(C)C)[C@H]5C[C@H](Oc6ccc7c(c6)C(=O)N(C6CCC(=O)NC6=O)C7=O)C5)C4)cn3)CC2)ccc1C#N (some centres unmarked) [Compound 43, N-((1r,4r)-4-(4-cyano-3-ethoxyphenoxy)cyclohexyl)-5-(3-((((1r,3r)-3-((2-(2,6-dioxopiperidin-3-yl)-1,3-dioxoisoindolin-5-yl)oxy)cyclobutyl) (isopropyl)amino)methyl)azetidin-1-yl)pyrazine-2-carboxamide]",< 1 nM
3,"N#Cc1ccc(O[C@H]2CC[C@H](NC(=O)c3cnc(N4CCC(CN(C5COC5)[C@H]5C[C@H](Oc6ccc7c(c6)CN(C6CCC(=O)NC6=O)C7=O)C5)CC4)cn3)CC2)cc1Cl (some centres unmarked) [Compound 21, N-((1r,4r)-4-(3-chloro-4-cyanophenoxy)cyclohexyl)-5-(4-((((1r,3r)-3-((2-(2,6-dioxopiperidin-3-yl)-1-oxoisoindolin-5-yl)oxy)cyclobutyl) (oxetan-3-yl)amino)methyl)piperidin-1-yl)pyrazine-2-carboxamide]",< 1 nM
4,"CC(C)Oc1cc(O[C@H]2C[C@H](N(CC3CCN(c4cnc(C(=O)N[C@H]5CC[C@H](Oc6ccc(C#N)c(Cl)c6)CC5)cn4)CC3)C(C)C)C2)cc2c1C(=O)N(C1CCC(=O)NC1=O)C2=O (some centres unmarked) [Compound 44, N-((1r,4r)-4-(3-chloro-4-cyanophenoxy)cyclohexyl)-5-(4-((((1r,3r)-3-((2-(2,6-dioxopiperidin-3-yl)-7-isopropoxy-1,3-dioxoisoindolin-5-yl)oxy)cyclobutyl) (isopropyl)amino)methyl)piperidin-1-yl)pyrazine-2-carboxamide]",< 1 nM
5,"CCOc1cc(O[C@H]2CC[C@H](NC(=O)c3cnc(N4CCC(CN(C(C)C)[C@H]5C[C@H](Oc6ccc7c(c6)C(=O)N(C6CCC(=O)NC6=O)C7=O)C5)CC4)cn3)CC2)ccc1C#N (some centres unmarked) [Compound 64, N-((1r,4r)-4-(4-cyano-3-ethoxyphenoxy)cyclohexyl)-5-(4-((((1r,3r)-3-((2-(2,6-dioxopiperidin-3-yl)-1,3-dioxoisoindolin-5-yl)oxy)cyclobutyl) (isopropyl)amino)methyl)piperidin-1-yl)pyrazine-2-carboxamide]",< 1 nM

# Same assay, conditions: degradation of AR ELISA in LNCaP and/or VCaP cells; Table 2C; read-out: DC50 Code*
row,Compound,DC50
1,"COc1cc(O[C@H]2C[C@H](N(CC3CCN(c4cnc(C(=O)N[C@H]5C(C)(C)[C@H](Oc6ccc(C#N)c(Cl)c6)C5(C)C)cn4)CC3)C(C)C)C2)cc2c1C(=O)N(C1CCC(=O)NC1=O)C2=O (some centres unmarked) [compound 124, N-((1r,3r)-3-(3-chloro-4-cyanophenoxy)-2,2,4,4-tetramethylcyclobutyl)-5-(4-((((1r,3r)-3-((2-(2,6-dioxopiperidin-3-yl)-7-methoxy-1,3-dioxoisoindolin-5-yl)oxy)cyclobutyl) (isopropyl)amino)methyl)piperidin-1-yl)pyrazine-2-carboxamide]",< 1 nM
2,"Cc1cc(O[C@H]2C(C)(C)[C@H](NC(=O)c3ccc(N4CCC(CN(C(C)C)[C@H]5C[C@H](Oc6ccc7c(c6)C(=O)N(C6CCC(=O)NC6=O)C7=O)C5)CC4)cc3)C2(C)C)cc(C)c1C#N (some centres unmarked) [compound 104, N-((1r,3r)-3-(4-cyano-3,5-dimethylphenoxy)-2,2,4,4-tetramethylcyclobutyl)-4-(4-((((1r,3r)-3-((2-(2,6-dioxopiperidin-3-yl)-1,3-dioxoisoindolin-5-yl)oxy)cyclobutyl)(isopropyl)amino)methyl)piperidin-1-yl)benzamide]",< 1 nM
3,"Cc1cc(O[C@H]2C(C)(C)[C@H](NC(=O)c3cnc(N4CCC(CN5CC(Oc6ccc7c(c6)C(=O)N(C6CCC(=O)NC6=O)C7=O)C5)CC4)cn3)C2(C)C)cc(C)c1C#N (some centres unmarked) [compound 99, N-((1r,3r)-3-(4-cyano-3,5-dimethylphenoxy)-2,2,4,4-tetramethylcyclobutyl)-5-(4-((3-((2-(2,6-dioxopiperidin-3-yl)-1,3-dioxoisoindolin-5-yl)oxy)azetidin-1-yl)methyl)piperidin-1-yl)pyrazine-2-carboxamide]",< 1 nM
4,"CC(C)N(CC1CCN(c2cnc(C(=O)N[C@H]3C(C)(C)[C@H](Oc4ccc(C#N)c(Cl)c4)C3(C)C)cn2)CC1)[C@H]1C[C@H](Oc2ccc3c(c2)C(=O)N(C2CCC(=O)NC2=O)C3)C1 (some centres unmarked) [compound 123, N-((1r,3r)-3-(3-chloro-4-cyanophenoxy)-2,2,4,4-tetramethylcyclobutyl)-5-(4-((((1r,3r)-3-((2-(2,6-dioxopiperidin-3-yl)-3-oxoisoindolin-5-yl)oxy)cyclobutyl) (isopropyl)amino)methyl)piperidin-1-yl)pyrazine-2-carboxamide]",< 1 nM
5,"COc1cc(O[C@H]2C(C)(C)[C@H](NC(=O)c3ccc(N4CC5(CC(CN(C(C)C)[C@H]6C[C@H](Oc7ccc8c(c7)C(=O)N(C7CCC(=O)NC7=O)C8=O)C6)C5)C4)cc3)C2(C)C)ccc1C#N (mixture of isomers) [compound 216, rac-N-((1r,3r)-3-(4-cyano-3-methoxyphenoxy)-2,2,4,4-tetramethylcyclobutyl)-4-(6-((((1r,3r)-3-((2-(2,6-dioxopiperidin-3-yl)-1,3-dioxoisoindolin-5-yl)oxy)cyclobutyl) (isopropyl)amino)methyl)-2-azaspiro[3.3]heptan-2-yl)benzamide]",< 1 nM
6,"Cc1cc(O[C@H]2C(C)(C)[C@H](NC(=O)c3ccc(N4CCC(CN(C(C)C)[C@H]5C[C@H](Oc6ccc7c(c6)C(=O)N(C6CCC(=O)NC6=O)C7=O)C5)CC4)nn3)C2(C)C)cc(C)c1C#N (some centres unmarked) [compound 110, N-((1r,3r)-3-(4-cyano-3,5-dimethylphenoxy)-2,2,4,4-tetramethylcyclobutyl)-6-(4-((((1r,3r)-3-((2-(2,6-dioxopiperidin-3-yl)-1,3-dioxoisoindolin-5-yl)oxy)cyclobutyl) (isopropyl)amino)methyl)piperidin-1-yl)pyridazine-3-carboxamide]",< 1 nM
7,"Cc1cc(O[C@H]2C(C)(C)[C@H](NC(=O)c3ccc(N4CCC(CN(C)[C@H]5CC[C@H](Oc6ccc7c(c6)C(=O)N(C6CCC(=O)NC6=O)C7=O)C5)CC4)cc3)C2(C)C)cc(C)c1C#N (stereo partly drawn) [compound 154, N-((1r,3S)-3-(4-cyano-3,5-dimethylphenoxy)-2,2,4,4-tetramethylcyclobutyl)-4-(4-((((1S,3S)-3-((2-(2,6-dioxopiperidin-3-yl)-1,3-dioxoisoindolin-5-yl)oxy)cyclopentyl) (methyl)amino)methyl)piperidin-1-yl)benzamide]",< 1 nM
8,"Cc1cc(O[C@H]2C(C)(C)[C@H](NC(=O)c3ccc(N4CCC(CN(CCO)[C@H]5C[C@H](Oc6ccc7c(c6)C(=O)N(C6CCC(=O)NC6=O)C7=O)C5)CC4)cc3)C2(C)C)cc(C)c1C#N (mixture of isomers) [compound 225, rac-N-((1r,3r)-3-(4-cyano-3,5-dimethylphenoxy)-2,2,4,4-tetramethylcyclobutyl)-4-(4-((((1r,3r)-3-((2-(2,6-dioxopiperidin-3-yl)-1,3-dioxoisoindolin-5-yl)oxy)cyclobutyl)(2-hydroxyethyl)amino)methyl)piperidin-1-yl)benzamide]",< 1 nM
9,"Cc1cc(O[C@H]2C(C)(C)[C@H](NC(=O)c3ccc(CN4CCOC[C@H]4CN4CCN(c5ccc6c(c5)C(=O)N(C5CCC(=O)NC5=O)C6=O)CC4)cc3)C2(C)C)cc(C)c1C#N (stereo partly drawn) [compound 183, N-((1r,3R)-3-(4-cyano-3,5-dimethylphenoxy)-2,2,4,4-tetramethylcyclobutyl)-4-(((3R)-3-((4-(2-(2,6-dioxopiperidin-3-yl)-1,3-dioxoisoindolin-5-yl)piperazin-1-yl)methyl)morpholino)methyl)benzamide]",< 1 nM
10,"COc1cc(O[C@H]2C[C@H](N3CCOC4(CCN(c5ccc(C(=O)N[C@H]6C(C)(C)[C@H](Oc7cc(C)c(C#N)c(C)c7)C6(C)C)cc5)CC4)C3)C2)cc2c1C(=O)N(C1CCC(=O)NC1=O)C2=O (mixture of isomers) [compound 220, rac-N-((1r,3r)-3-(4-cyano-3,5-dimethylphenoxy)-2,2,4,4-tetramethylcyclobutyl)-4-(4-((1r,3r)-3-((2-(2,6-dioxopiperidin-3-yl)-7-methoxy-1,3-dioxoisoindolin-5-yl)oxy)cyclobutyl)-1-oxa-4,9-diazaspiro[5.5]undecan-9-yl)benzamide]",< 1 nM

# Same assay, conditions: degradation of AR ELISA in LNCaP and/or VCaP cells; read-out: DC50 Code*
row,Compound,DC50
1,COc1cc(O[C@H]2C(C)(C)[C@H](NC(=O)c3ccc(N4CCC(CN5CCOCCCCOc6cc(cc7c6C(=O)N(C6CCC(=O)NC6=O)C7=O)O[C@H]6C[C@H]5C6)CC4)nn3)C2(C)C)ccc1C#N (some centres unmarked) [compound 244],1 to 10 nM
2,"COCCN(CC1CCN(c2cnc(C(=O)N[C@H]3C(C)(C)[C@H](Oc4ccc(C#N)c(Cl)c4)C3(C)C)cn2)CC1)[C@H]1C[C@H](Oc2ccc3c(c2)C(=O)N(C2CCC(=O)NC2=O)C3=O)C1 (some centres unmarked) [compound 239, N-((1r,3r)-3-(3-chloro-4-cyanophenoxy)-2,2,4,4-tetramethylcyclobutyl)-5-(4-((((1r,3r)-3-((2-(2,6-dioxopiperidin-3-yl)-1,3-dioxoisoindolin-5-yl)oxy)cyclobutyl)(2-methoxyethyl)amino)methyl)piperidin-1-yl)pyrazine-2-carboxamide]",1 to 10 nM
